In brackets after ≈: the same amount, converted by molar mass. Entries after “also recorded” stand apart in the source; their conditions may differ. Where two headings read alike, the source gives them in different places.
What was measured:
HeLa MKYP cells = experiment: Human mitophagy assay (HeLa MKYP, mtKeima FACS, FCCP/oligomycin); format: cell-based; conditions: for EC50: Homo sapiens, HeLa
Experimental: Briefly, HeLa MKYP cells were plated at 10,000 cells/well in 96 well plates along with compounds at various concentrations. Following 16 hrs of incubation, cells were treated with 1 uM FCCP/oligomycin for 6 hours, then analyzed via FACS for the presence of mitochondria in lysosomes (as determined by an emissions spectrum shift from the pH-sensitive mtKeima tag). Examples are shown in FIG. 1 through FIG. 13 below.

[1] = tested on: Hela MKYP (Mito-Keima/YFP-Parkin) cells; experiment: Inspection of round cells; conditions: Tables 6A-6D
Experimental: Briefly, the Hela MKYP (Mito-Keima/YFP-Parkin) cells were seeded at 10K cells/well. EP/MTK compounds were added at seeding (cells were still in suspension). The cells were incubated with the EP/MTK compounds for 16 hours, then 1 μM FCCP/oligomycin was added for 6 hours. Prior to harvesting, cells were scored by eye under 20× magnification for the presence or absence of crystalline or aggregated compound, or round cells.

dOTC = experiment: Ornithine carbamoyltransferase (dOTC) assay; format: cell-based
From the text: The expression of a deletion mutant of dOTC yields Triton X-100 insoluble protein aggregates in the mitochondrial matrix. This misfolded protein expression is capable of recruiting PINK1/Parkin to mitochondria without depolarizing the inner mitochondrial membrane. Thus, without wishing to be bound by theory, it may represent a more physiological mechanism of PINK1 stabilization.
Here, HeLa cells stably expressing YFP parkin, containing doxycycline inducible expression of dOTC, were obtained. The cells were seeded at 20000 cells/well plus doxycycline (1 μg/mL) plus MTK on a 96-well plate. On Day 3, the cells were fixed and permeabilized and bound with OTC antibody. DAPI and cell mask were added. There was no wash off of dox. The results were imaged at 40×, non-confocal. 85-600 cells were analyzed per well. Each condition had 1-3 wells.

Solubility in 1× PBS = format: physicochemical
pS129 α-synuclein = pS129 α-synuclein in human iPSC derived neurons; format: cell-based; conditions: FIG. 21
[2] = In vivo pharmacokinetic properties (Table 7)
[3] = tested on: phospho-serine 129 synuclein (pS129); experiment: Preformed α-syn amyloid fibril (PFF) primary neuron model; format: cell-based, mice
Experimental: Briefly, primary hippocampal neurons were derived and cultured following standard protocols. At DIV-7, the cultures were treated with PFFs. At DIV-10, the cultures began treatment with a Mitokinin compound or vehicle controls, such treatment continuing for the duration of the experiment. The cultures were fixed and stained for alpha synuclein, TUJ1, and MAP2 at DIV-14, and analysis performed by unbiased imaging on an ImageXpress Confocal microscope and quantified by Molecular Devices' MetaXpress software.

PINK1 = target: T1, PINK1 (Homo sapiens, UniProt Q9BXM7); experiment: Human Phospho-Ubiquitin (pS65) ub2 assay (western blot, in vitro PINK1 kinase assay); format: cell-based; conditions: in the presence of 0.5 μM FO; FIG. 14
T1 construct: for each cell type tested (HeLa-MKYP WT or PINK1^KO); endogenous in cells; host or cells: HeLa-MKYP (WT) / HeLa cells
T1 sequence (Q9BXM7 78-581): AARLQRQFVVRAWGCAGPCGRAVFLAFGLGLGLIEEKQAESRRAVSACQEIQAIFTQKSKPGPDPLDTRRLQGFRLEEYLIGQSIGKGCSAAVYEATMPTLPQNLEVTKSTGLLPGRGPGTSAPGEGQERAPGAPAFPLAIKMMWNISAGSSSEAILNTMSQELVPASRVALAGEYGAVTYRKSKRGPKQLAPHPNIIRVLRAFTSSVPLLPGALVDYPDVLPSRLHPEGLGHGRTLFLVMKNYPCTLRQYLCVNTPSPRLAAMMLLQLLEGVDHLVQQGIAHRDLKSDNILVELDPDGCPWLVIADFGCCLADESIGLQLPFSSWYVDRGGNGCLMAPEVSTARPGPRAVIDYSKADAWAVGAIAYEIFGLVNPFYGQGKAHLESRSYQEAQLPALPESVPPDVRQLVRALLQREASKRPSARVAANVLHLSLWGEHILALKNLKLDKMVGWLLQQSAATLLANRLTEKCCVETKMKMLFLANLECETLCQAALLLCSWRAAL
Experimental: Briefly, HeLa MKYP cells were plated at 1,300,000 cells/plate in 10 cm plates in 10 mL of medium containing compound at various concentrations. Following 16 hrs of incubation, cells were treated with 0.5 uM FCCP/oligomycin for 2 hours, then harvested. Mitochondria were then isolated according to published protocols (Ordureau et al, 2014; https://doi.org/10.1016/j.molcel.2014.09.007). Equal amounts of samples were loaded on 26 well gradient gels, and a western blot analysis was performed using commercially available antibodies for various markers, including […].

[4] = In vivo summary, pharmacokinetics, rat
Experimental: Referring to Tables 8A-C below, an in vivo summary of EP-0035985 IV at 1 mg/kg (8A), PO 10 mg/kg (8B), and a tissue distribution, mouse (8C) is shown below.

[5] = three days of treatment with DOX and 50 μM

For FC(F)(F)c1cc2c(NC3CCCc4ccccc43)ncnc2[nH]1 (centres unmarked) [Compound 15], the EC50 (HeLa MKYP cells; Table 3 Supplement B, read-out: Mitophagy EC50 (HeLa mKeima assay)) was 440 ± 120 nM, the EC50 (HeLa MKYP cells; Table 4, read-out: Potency (EC50 Max Mitophagy)) was 440 ± 120 nM and the “mitophagy as measured by FACS mKeima” value (HeLa MKYP cells; PINK1wt vs PINK1ko cell lines, FIG. 19) was “increases mitophagy as measured by FACS mKeima in PINK1^wt but not PINK1^ko cell lines”. For the same compound, the “Potency at 1 μM F/O toxin*” value (HeLa MKYP cells; Table 2, % activation of mitophagy at 1.6 μM treatment of the compound) was 55.5%, the “Inspection of round cells” value ([1]; 1.6 μM) was 0 and the “Inspection of round cells” value ([1]; 3.1 μM) was 0. The “Inspection of round cells” value ([1]; 6.3 μM) was 0, the “Inspection of round cells” value ([1]; 12.5 μM) was 0 and the “Inspection of round cells” value ([1]; 25.0 μM) was 0. For the same compound, the “Inspection of round cells” value ([1]; 50.0 μM) was 0, the “dOTC proteins / delta OTC aggregates” value (dOTC; induced by doxycycline, FIG. 16, FIG. 20, listed as EP-0035985) was “able to reduce the accumulated dOTC proteins; also recorded: reduces delta OTC aggregates from mitochondria” and the OTC signal (dOTC; [5]) was “very effective at reducing OTC signal”. The cell counts (dOTC; [5]) was “cell counts were lower”, the solubility (Solubility in 1× PBS) was 1 µM (≈ 0.332 µg/mL) and the “pS129 α-synuclein” value (pS129 α-synuclein) was “significantly reduces pS129 α-synuclein”. For the same compound, the “AUC (obs)” value ([2]; IV (1 mg/kg)) was 1.4 µM·h, the Cmax ([2]; IV (1 mg/kg)) was 1450 nM and the Cmax ([2]; PO (10 mg/kg)) was 1080 nM. For the same compound, the F % ([2]; PO (10 mg/kg)) was 17.4%, the “AUC (obs)” value ([2]; PO (50 mg/kg)) was 27.4 µM·h and the Cmax ([2]; PO (50 mg/kg)) was 9800 nM. For the same compound, the F % ([2]; PO (50 mg/kg)) was 37.9%, the T1/2 ([2]; PO (50 mg/kg)) was 3.9 h and the bioavailability ([2]; in vivo dosing, FIG. 23 and Table 7) was “good bioavailability”. It also gave an AUC(0-inf) ([2]; mouse, in vivo, IV (1 mg/kg)) of 1.5 µM·h, a half-life ([2]; mouse, in vivo, IV (1 mg/kg)) of 1.4 h and an AUC ([2]; mouse, in vivo, PO (10 mg/kg)) of 2.4 µM·h. For the same compound, the AUC(0-inf) ([2]; mouse, in vivo, PO (10 mg/kg)) was 2.6 µM·h, the half-life ([2]; mouse, in vivo, PO (10 mg/kg)) was 2 h and the AUC(0-inf) ([2]; mouse, in vivo, PO (50 mg/kg)) was 35.5 µM·h. The EC50 ([3]; FIG. 22A, 22B, read-out: EC50 of decrease of pS129 synuclein increase driven by PFF addition) was 981 nM, the “pS129 synuclein in PINK1ko cell lines” value ([3]; PINK1ko, FIG. 22C) was “does not decrease pS129 synuclein in PINK1^ko cell lines” and the “pS65 Ub signal” value (PINK1) was “increases the pS65 Ub signal”. For the same compound, the AUCExtr ([4]; IV at 1 mg/kg, Table 8A) was 2.5%, the AUClast ([4]; IV at 1 mg/kg, Table 8A) was 837.5 ng·h/mL and the C0 ([4]; IV at 1 mg/kg, Table 8A) was 1667.7 ng/mL. It also gave a CL ([4]; IV at 1 mg/kg, Table 8A) of 19.5 mL/min/kg, an MRTlnf ([4]; IV at 1 mg/kg, Table 8A) of 2.0 h and a T1/2 ([4]; IV at 1 mg/kg, Table 8A) of 3.6 h. For the same compound, the Vss ([4]; IV at 1 mg/kg, Table 8A) was 2.4 L/kg, the Vz ([4]; IV at 1 mg/kg, Table 8A) was 6.0 L/kg and the AUClast ([4]; PO 10 mg/kg, Table 8B) was 692.4 ng·h/mL. It also gave an MRTlnf ([4]; PO 10 mg/kg, Table 8B) of 88.1 h, a Vss ([4]; PO 10 mg/kg, Table 8B) of 7.9 L/kg and an AUC ([4]; in vivo, IV at 1 mg/kg, Table 8A) of 838 ng·h/mL. It also gave an AUC ([4]; in vivo, PO 10 mg/kg, Table 8B) of 7350 ng·h/mL and a C0 ([4]; in vivo, PO 10 mg/kg, Table 8B, read-out: C0) of 2.6 ng/mL.

— patent US20220162215A1, “COMPOSITIONS AND METHODS OF USING THE SAME FOR TREATMENT OF NEURODEGENERATIVE AND MITOCHONDRIAL DISEASE” (MITOKININ, INC., priority 2019, published 2022)
